How the values were obtained:
DIPGX37 [1] = H3.3 K27M diffuse intrinsic pontine glioma line; test: EC50 (inflection of fitted growth-inhibition curve) (log10 M)
Outline: (§1)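 A pin tool was used to add a 10-point threefold dilution series (mean top concentration 35 μM), in triplicate, to patient-derived pHGG/DIPG cell lines and astrocyte controls seeded on 384-well plates coated with 1% Geltrex. After 7 days at 37 °C and 5% CO2 (3 days for iAstro), CellTiter-Glo luminescence was log2-transformed, normalised on each plate to % activity relative to negative (solvent) and positive control wells, and pooled. EC50 and maximal response (yFin) were read from the three- or four-parameter log-logistic fit with the lowest AICc.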

HGGX39 [2] = paediatric high-grade glioma line; test: as above
Outline: as §1

DIPGX29 [3] = H3.3 K27M diffuse intrinsic pontine glioma line; test: as above
Outline: as §1

HGGX6 [4] = H3.3 G34R paediatric high-grade glioma line; test: as above
Outline: as §1

DIPGX37 [5] = test: maximal growth inhibition (yFin) relative to DMSO / staurosporine; higher = more efficacious
Outline: as §1

HGGX39 [6] = test: as above
Outline: as §1

DIPGX29 [7] = test: as above
Outline: as §1

HGGX6 [8] = test: as above
Outline: as §1

DIPGX37 [9] = test: area under dose-response curve of % growth inhibition (log2 RLU vs DMSO / staurosporine), 1e-11 to 1e-4 M (% x log10 M); higher = more growth inhibition
Outline: (§2)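 A 10-point threefold dilution series, mean top concentration 35 μM, was applied in triplicate to patient-derived pHGG/DIPG lines and astrocytes on 1% Geltrex-coated 384-well plates for 7 days (3 days for iAstro) at 37 °C, 5% CO2. Per-plate % activity between solvent and positive controls was calculated from log2-transformed CellTiter-Glo luminescence. Area under the curve followed from the trapezoid rule on a log-logistic fit, or on a smoothing spline when the sigmoid fit failed.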

HGGX39 [10] = test: as above
Outline: as §2

DIPGX29 [11] = test: as above
Outline: as §2

HGGX6 [12] = test: as above
Outline: as §2

Row | SMILES | EC50 (log10 M) (DIPGX37 [1]) | EC50 (log10 M) (HGGX39 [2]) | EC50 (log10 M) (DIPGX29 [3]) | EC50 (log10 M) (HGGX6 [4]) | maximal growth inhibition (DIPGX37 [5]) [%] | maximal growth inhibition (HGGX39 [6]) [%] | maximal growth inhibition (DIPGX29 [7]) [%] | maximal growth inhibition (HGGX6 [8]) [%] | area under dose-response curve (DIPGX37 [9]) | area under dose-response curve (HGGX39 [10]) | area under dose-response curve (DIPGX29 [11]) | area under dose-response curve (HGGX6 [12])
1 | Clc1ccc(CCC(Cn2ccnc2)Sc2c(Cl)cccc2Cl)cc1 (configuration not stated) [BUTOCONAZOLE] | -4.84 | -4.87 | -4.86 | -4.79 | 70.3 | 85.9 | 57 | 47.6 | 69.4 | 80.5 | 59.7 | 37.8
2 | Cc1cc(C2CCCCC2)n(O)c(=O)c1 [CICLOPIROX] | -6.44 | -5.04 | -6.42 | -6.23 | 58.3 | 72.3 | 57.2 | 63.9 | 142 | 84.1 | 138 | 142
3 | C[C@@H](NCCCc1cccc(C(F)(F)F)c1)c1cccc2ccccc12 [CINACALCET] | -5.04 | -5.05 | -5.03 | -5.03 | 90.5 | 94.2 | 82.1 | 84.4 | 112 | 111 | 99.9 | 98.5
4 | CC(C)/N=c1\cc2n(-c3ccc(Cl)cc3)c3ccccc3nc-2cc1Nc1ccc(Cl)cc1 [CLOFAZIMINE] | -4.91 | -4.88 | -5.16 | -4.91 | 83.8 | 90.6 | 54.4 | 71.5 | 84.9 | 79.8 | 76.3 | 65.3
5 | CCN(CC)CCOc1ccc(C(=C(Cl)c2ccccc2)c2ccccc2)cc1 [CLOMIPHENE] | -5.2 | -5.71 | -4.92 | -5.11 | 84.8 | 81.6 | 77 | 71.4 | 102 | 139 | 71.2 | 80.2
6 | COc1cccc2c1C(=O)c1c(O)c3c(c(O)c1C2=O)C[C@@](O)(C(C)=O)C[C@@H]3O[C@H]1C[C@H](N)[C@H](O)[C@H](C)O1 [DAUNORUBICIN] | -5.94 | -6.13 | -5.69 | -5.62 | 82.2 | 76.1 | 83.3 | 76.4 | 160 | 159 | 141 | 124
7 | CCCCCCCCCCCC[N+](C)(C)CCOc1ccccc1 [DOMIPHEN] | -5.28 | -5.59 | -5.18 | -5.11 | 85.2 | 81 | 80.5 | 71.7 | 109 | 129 | 95.4 | 79.9
8 | CCCCOc1ccc(C(=O)CCN2CCCCC2)cc1 [DYCLONINE] | -5.35 | -5.12 | -4.83 | -5.02 | 95.1 | 98.8 | 87.1 | 87.9 | 129 | 110 | 92.7 | 89.2
9 | OCCN1CCN(CCCN2c3ccccc3Sc3ccc(C(F)(F)F)cc32)CC1 [FLUFENAZINE] | -4.74 | -4.77 | -4.74 | -4.76 | 65.2 | 65.9 | 61.6 | 63.5 | 59.8 | 64 | 45.7 | 67.4
10 | Fc1ccc(C(c2ccc(F)cc2)N2CCN(C/C=C/c3ccccc3)CC2)cc1 [FLUNARIZINE] | -4.84 | -4.91 | -4.86 | -4.86 | 74.5 | 83 | 71.7 | 65.9 | 62.8 | 73.5 | 61.5 | 56.4
11 | C[C@@H](O[C@H]1OCCN(Cc2nn(P(=O)(O)O)c(=O)[nH]2)[C@H]1c1ccc(F)cc1)c1cc(C(F)(F)F)cc(C(F)(F)F)c1 [FOSAPREPITANT] | -4.83 | -4.81 | -4.84 | -4.84 | 69.8 | 82.4 | 60.6 | 56 | 70.6 | 66.7 | 63.6 | 47.1
12 | CCn1c(=O)c(-c2ccc(Cl)cc2Cl)cc2cnc(Nc3ccc(N4CCNCC4)c(F)c3)nc21 [FRAX486] | -5.3 | -5.64 | -5.23 | -5.32 | 81 | 84.5 | 80.4 | 73.5 | 142 | 139 | 135 | 97.4
13 | COc1cc2ncnc(Nc3ccc(F)c(Cl)c3)c2cc1OCCCN1CCOCC1 [GEFITINIB] | -4.66 | -4.65 | -4.7 | -4.67 | 69.8 | 73.7 | 58.3 | 65.7 | 46.1 | 47.9 | 54.3 | 47.8
14 | CN(C)c1ccc(C(=C2C=CC(=[N+](C)C)C=C2)c2ccc(N(C)C)cc2)cc1 [GENTIAN VIOLET] | -5.13 | -4.97 | -5.15 | -5.16 | 124 | 121 | 128 | 112 | 152 | 164 | 158 | 133
15 | COc1cc(C(=O)N2CC[C@@H](O)[C@@H](N)C2)cc2nc(-c3cc4ccccc4n3CC3CC3)n(C)c12 [GSK-484] | -4.89 | -4.99 | -4.94 | -4.98 | 64 | 20.9 | 50.1 | 45.4 | 67.7 | 20.6 | 54.6 | 48.9
16 | C=CC(=O)N1CCC[C@@H](n2nc(-c3ccc(Oc4ccccc4)cc3)c3c(N)ncnc32)C1 [IBRUTINIB] | -4.96 | -4.94 | -5 | -5.01 | 41.2 | 53.1 | 29.8 | 35.5 | 53.7 | 50.1 | 49.8 | 35.8

Reference: the supplement of paper PMC8253809
